Source: patent US12012636B2, “Pulmonary hypertension biomarker” (NOVARTIS AG, priority 2014, dated 2024)

Tested on: candidate biomarker gene transcripts (Ccl21, Col18a1, Cxcl12, Cxcl13, Dmp1, Frzb) in rat Hy/Su lungs
Test: Candidate biomarker mRNA levels (QPCR) in lung in the hypoxia/Sugen rat model of PH following treatment with Imatinib
Assay type: in vivo
Experimental: Sugen (250 mg; SU5416; Sigma-Aldrich®) was dissolved in vehicle (12.5 ml; 0.5% (wt/vol) carboxyl methylcellulose sodium, 0.9% (wt/vol) NaCl, 0.4% (vol/vol) polysorbate, 0.9% (vol/vol) benzyl alcohol in deionized water), sonicated for 15 min and then vortexed. On day 0, animals were anaesthetized, weighed and received Sugen 20 mg/kg by sub-cutaneous injection. […] Control animals remained in room air (21% O2) to serve as normoxic controls for the study. After 2 weeks, all animals were removed from the hypoxia chamber. At week 4, the animals were subjected to echocardiographic measurements under sevoflurane anaesthesia and monitored closely until fully recovered. Animals underwent RV catheterization for measurement of right ventricular pressure (RVP) under a mixture of ketamin and medetomidine anaesthesia. Following euthanasia by Schedule 1, the left lobe of the lung was removed, inflated and fixed in 10% formalin and embedded in paraffin for histological analysis. Lobes of the right lung were snap frozen for transcriptional profiling.
Frozen rat lung samples, collected in TT2 tissue bags (K Bioscience® Cat #520021) were crushed using the Covaris CryoPrep CP02. Total RNA from the crushed lung samples was extracted by RNeasy Mini kit according to the manufacturer's protocol (Qiagen™). Genomic DNA was removed by treatment with DNase I (Turbo DNase kit, Invitrogen). The exact quantification of RNA was determined with a NanoDrop ND-1000 spectrophotometer. RNA quality was assessed by analyzing 18S and 28S rRNAs by microfluidics-based electrophoresis on a 2100 Bioanalyzer (Agilent Technologies, Santa Clara, Calif.).
All animal procedures were conducted as described above.
In this study, following administration of an initial dose of Sugen on day 0 and a period of 14 days in a hypoxia chamber following, rats were administered 100 mg/kg of Imatinib or vehicle control daily for a further two weeks.
Following euthanasia by Schedule 1, the left lobe of the lung was removed, inflated and fixed in 10% formalin and embedded in paraffin for histological analysis, by airway inflation. Tissue sections (3 μm) were stained with antibodies against von Willebrand factor (vWF) and α-smooth muscle actin (α-SMA). Slides were examined using a DMLB and confocal microscope, digital camera, and IM50 imaging software (Leica Microsystems, London, UK). Small pulmonary vessels (10-100 μm diameter indicated by vWF staining) were assessed for degrees of circumferential α-SMA-positive staining indicative of muscularisation. Lobes of the right lung were snap frozen for candidate biomarker mRNA expression measurements. Total RNA was extracted and underwent quality control as mentioned in section above.
cDNA was synthesised using the High Capacity RNA-to-cDNA Kit (Invitrogen) according to the kit manufacturer's protocol. QPCR was performed on an ABI Prism 7900HT sequence detection system (Applied Biosystems, USA), using TaqMan Universal PCR Master Mix (Applied Biosystems). Taqman assays were purchased from Applied Biosystems®. Relative expression was normalised to a combination of 10 different housekeeping genes. Data were analyzed using the SDS RQ Manager, software (Applied Biosystems, version 2.4). Normalised gene expression values for each gene (2^−Δct) were plotted and analysed using a two-way ANOVA in GraphPad Prism 6.02.

[1] = rat Hy/Su lungs, Imatinib 100 mg/kg daily for two weeks vs vehicle, QPCR

**Q.** How did the “CCL21 mRNA expression levels in lung samples” value (day 28, imatinib group vs vehicle treated animals (increased vs naïve controls)) turn out when `Cc1ccc(NC(=O)c2ccc(CN3CCN(C)CC3)cc2)cc1Nc1nccc(-c2cccnc2)n1` [Imatinib] was run?
**A.** decrease

**Q.** What about the “Ccl21 gene transcript in lung” value [1] of the same compound?
**A.** down-regulated

**Q.** And the “Col18a1 gene transcript in lung” value [1]?
**A.** down-regulated

**Q.** And the “Cxcl12 gene transcript in lung” value [1]?
**A.** down-regulated

**Q.** What about the “Cxcl13 gene transcript in lung” value [1] of the same compound?
**A.** down-regulated

**Q.** And the “Dmp1 gene transcript in lung” value [1]?
**A.** down-regulated

**Q.** What about the “Frzb gene transcript in lung” value [1] of the same compound?
**A.** down-regulated
